Assay results reported in patent publication US20230203130A1, “A PEPTIDE COCKTAIL” (Hubro Therapeutics AS, priority 2020, published 2023).
“Also recorded” adds a separate entry of the source. Read-outs that look alike come from different tables or passages of the source. Where no end group is shown, it is not given here.

Legend:
[1] = system: T cells (PBMC) from healthy donors; test: T-cell proliferation (3H-thymidine, SI) after in vitro stimulation of PBMC with cocktail fsp2+fsp4 (Example 4); assay type: cell-based, human; parameters: T cell proliferation (stimulation index, SI): immunogenicity: dose or concentration left out as unconfirmed; details: for relative immunogenicity: FIGS. 10 and 11, compared with fsp3 and fsp4; for T cell proliferation (stimulation index, SI): immunogenicity: first and second round of in vitro stimulation with cocktail of fsp2 and fsp4, four healthy donors, FIGS. 10-12
Experimental: Fresh buffy coats from four healthy donors were obtained from a blood bank.
Peripheral blood mononuclear cells (PBMC) isolated from fresh buffy coats from four healthy donors were counted and suspended in DC medium to 15*10^6 cells/ml, and subsequently diluted with DC-medium to 4*10^6 cells/ml (Table 6).
Four 24-well plates were used for each donor, with 4*10^6 cells per well (each well has a volume of 1 ml).
Peptide cocktail: Solution of peptides fsp2+fsp4, containing […] of each peptide. 40 μl peptide solution was added to each well.
The plates were incubated in a cell incubator for 14 days (37° C., 5% CO2). IL-2 and IL-7 were added on day 3. The cells were inspected daily.
Test peptides: fsp2+fsp4 (SEQ ID NOs: 21 and 23), fsp1 (SEQ ID NO: 20), fsp2 (SEQ ID NO: 21), fsp3 (SEQ ID NO: 22), fsp4 (SEQ ID NO: 23), fsp5 (SEQ ID NO: 19).
Negative controls: T cells, T cells+APC (without addition of test peptides)
Cells and reagents were added to plate wells (in triplicate) as described in Tables 8 and 9 below. The total volume added to each well was 0.20 ml. • T cells (PBMC): 50 000 cells/well (0.25*10^6 cells/ml) • APC: Irradiated (30 Gy, 8 minutes) autologous feeder cells: 50 000 cells/well • (fspx): 0.2 nmol peptide/well (each peptide), concentration: […] peptide. (fsp was dissolved in DMSO before dilution to correct concentration)
The plates were incubated in a cell incubator for 48 hours (37° C., 5% CO2).
After incubation for 48 hours, 20 μl 3H-tThymidine solution (5 Ci/ml) was added to each well and the plates were incubated for approximately 17 hours (37° C., 5% CO2).
After 17 hours the cells were harvested (Unifilters) and dried on the filters at 45° C. until completely dry. After covering the bottom of the Unifilters with adhesive covers (delivered with the Unifilters) 25 μl micro scintillation liquid was added to each well, the plate was covered with TopSeal and 3H-Thymidine uptake was measured as counts per minute (CPM) using a microplate scintillation counter.
The T cell proliferation results after the first round of in vitro stimulation with the cocktail of fsp2 and fsp4 peptides are presented as stimulation index (SI) in FIG. 10. SI=mean CPM (triplicates) of (T cells+APC+test peptide(s)) divided by mean CPM (triplicates) of (T cells+APC). SI>1 indicates an increase in T-cell proliferation and SI 2 is a clear sign of immunogenicity.
PBMCs harvested after the first in vitro stimulation were re-stimulated in vitro according to the protocol set out above, with 2×10^6 cells per well. T-cell proliferation was tested according to the protocol set out above.

[2] = system: T cells; details: cited from earlier work; for immunogenicity / T-cell responses / patients recognizing the peptide: Saeterdal et al., PNAS 2001; for immunogenicity / T-cell responses: tumour infiltrating Th cells, MSI+ tumours
[3] = system: T-cells from PMBCs from healthy donors; test: T-cell proliferation after induction of T-cells with fsp2 (Example 5); assay type: cell-based, human; details: one round of in vitro stimulation, FIG. 13
Experimental: A similar protocol to that set out in Example 4 was used to test the immunogenicity of fsp6 (SEQ ID NOs: 24) and fsp7 (SEQ ID NO: 123). Fsp2 (SEQ ID NO: 21; 10 μM) was used to induce T-cells from PMBCs isolated from fresh buffy coats from four healthy donors. At day 14 after induction, a T-cell proliferation assay was carried out as in Example 4, using fsp2 (SEQ ID NO: 21), fsp6 (SEQ ID NO: 24) and fsp7 (SEQ ID NO: 123) as test peptides. The T-cell proliferation results after one round of in vitro stimulation are presented as stimulation index (SI) in FIG. 13. […] It is also expected, in view of the results shown in FIGS. 11 and 12, that a peptide having the sequence of fsp6 (SEQ ID NO: […]) but having a C-to-G amino acid substitution corresponding to that in fsp2 is also immunogenic and is useful as a vaccine or treatment against cancer.

[4] = system: T-cells from PBMC bulk cultures of healthy donors; test: Peptide-specific T-cell proliferation after stimulation of PBMC with cocktail fsp2+fsp8+fsp9 (Example 7); assay type: cell-based, human; details: FIGS. 16-18; for T-cell response to the peptide alone: after only one round of stimulation with the peptide mixture; for T-cell response: three donors
Experimental: PBMCs isolated from buffy coats from four healthy donors (obtained from a blood bank) were suspended in complete CellGro DC medium to 15*10^6 cells/ml and diluted to 4*10^6 cells/ml (Table 14).
On day 1, 1 ml of PBMC suspension (4×10^6 cells/ml) from each donor was transferred to wells of 24-well plates (4*10^6 cells per well) and 60 μl of the peptide cocktail (fsp2+fsp8+fsp9) stock solution (166.67 μM/each peptide) was added to each well. The plates were incubated in a cell incubator for 14 days. IL-2 and IL-7 was added on day 3 (0.50 ml DC medium containing 60 U/ml IL-2 and 15 ng/ml IL-7). The cells were inspected daily and DC medium with cytokines (IL-2, IL7) was refreshed according to in house laboratory routines.
The in vitro stimulation of bulk cultures was repeated a further two times (i.e. a total of three stimulations) using PBMCs harvested after the preceding round of in vitro stimulation. Peptide specific T-cell proliferation was tested on day 14, after each round of stimulation, such that T-cell proliferation was tested on days 14, 28 and 42 after the first round of stimulation.
The cells from the bulk cultures were harvested (5 minutes at 300×g centrifugation) and re-suspended in DC medium (5 ml). An aliquot of the 5 ml resuspension was diluted 5 times and the T-cells counted in order to calculate the volume required to provide 5×10^4 cells per well for the proliferation assay. T-cells from each donor were transferred (triplicates) to wells of 96-well plates (5×10^4 cells per well) together with autologous, irradiated (30 Gy for 8 minutes) PBMCs (5×10^4 cells per well) and test peptide(s) (final concentration 10 μM/each peptide). Negative controls were wells without test peptide(s) and positive controls were wells with SEC-3 (0.1 μg/ml) without test peptide(s). The cells (plates) were incubated for 48 hours (37° C./5% CO2). After 48 hours, 20 μL of 3H-Thymidine (3.7×104 Bq) was added to the cells and incubation was continued for 17 hours. The cells were harvested (Unifilters using the Filtermate 196 Harvester) and dried on the filters for approx. 4.5 hours at 45° C. The cells were counted (CPM) by using the standard in-house laboratory protocol (TopCount Packard microplate scintillation beta counter and run programme).
Peptide-specific T-cell proliferation was measured after 14 days of stimulation of PBMC bulk cultures with a peptide cocktail containing fsp2, fsp8 and fsp9 (10 μM each peptide). Proliferation induced by each of the single peptides and the peptide cocktail was tested at a concentration of […] (each peptide).
Peptide-specific T-cell proliferation was measured after 14 days of re-stimulation of PBMC with a peptide cocktail containing fsp2, fsp8 and fsp9 ([…] each peptide). T-cell proliferation induced by each of the single peptides and the peptide cocktail was tested. The single peptides were tested at a concentration of 10 μM. The peptide cocktail was tested using two different amounts of each peptide in the cocktail, namely, a peptide cocktail containing […] each peptide and a peptide cocktail containing 3.33 μM each peptide.
Peptide-specific T-cell proliferation was measured after 14 days of a further re-stimulation of PBMC with a peptide cocktail containing fsp2, fsp8 and fsp9 ([…] each peptide). T-cell proliferation induced by each of the single peptides and the peptide cocktail was tested. The single peptides were tested at a concentration of 10 μM. […]

KCIMKEKKSLVRLSSCVPVALMSA (listed as Homo sapiens) [fsp1, peptide of −1a frameshifted TGFβR2]
relative immunogenicity [1]: more immunogenic than peptides which do not comprise amino acids from the wild-type sequence of TGFβR2 | T cell proliferation (stimulation index, SI): immunogenicity [1]: stimulated T-cells induced from PMBCs

SLVRLSSCV (listed as Homo sapiens) [p523, prior art peptide of mutTGFβR2]
immunogenicity ([2]; EP1078000 FIG. 14, four rounds of stimulation of the T-cells): immunogenic | immunogenicity ([2]; Linnebacher et al., FIG. 1): not immunogenic

SSGVPVALMSAMTTSSSQKN (not fully specified) [fsp4, modified peptide of −1a frameshifted TGFβR2]
T cell proliferation (stimulation index, SI): immunogenicity [1]: immunogenic and can activate T-cells

SPKCIMKEKKSLVRLSSCVPVA (listed as Homo sapiens) [P540, prior art peptide of mutTGFβR2]
immunogenicity / T-cell responses [2]: able to induce T-cell responses in some patients; also recorded: immunogenic

fsp7: peptide of −1a frameshifted TGFβR2; same sequence as fsp2 but truncated at the N-terminus (VRLSSCVPVALMSA; listed as Homo sapiens)
relative immunogenicity [3]: both fsp6 and fsp2 are much more immunogenic than fsp7

PKCIMKEKKKSLVRLSSCV (listed as Homo sapiens) [p541, prior art peptide of mutTGFβR2]
immunogenicity / T-cell responses [2]: able to induce T-cell responses in some patients | immunogenicity / T-cell responses ([2]; listed as p4541): immunogenic

RNRIPAVLRTEGEPLHTPSVGMRET (listed as Homo sapiens) [fsp8, peptide of −1a frameshifted ASTE1]
T-cell response to the peptide alone [4]: induces a T-cell response | T-cell response [4]: able to induce a T-cell response

SLVRLSSCVPVALMSAMTTSSSQ (listed as Homo sapiens) [p538, prior art peptide of mutTGFβR2]
patients recognizing the peptide ([2]; patients having spontaneous MSI+ colon cancer): two of three | patients recognizing the peptide ([2]; patients with HNPCC): all three | immunogenicity / T-cell responses [2]: highly immunogenic

KTILKKAGIGMCVKVSSIFFINKQK (listed as Homo sapiens) [fsp9, peptide of −1a frameshifted TAF1β]
T-cell response to the peptide alone [4]: induces a T-cell response | T-cell response [4]: able to induce a T-cell response

KGIMKEKKSLVRLSSCVPVALMSA (not fully specified) [fsp2, modified peptide of −1a frameshifted TGFβR2]
relative immunogenicity [1]: more immunogenic than peptides which do not comprise amino acids from the wild-type sequence of TGFβR2 | T cell proliferation (stimulation index, SI): immunogenicity [1]: immunogenic and can activate T-cells | relative immunogenicity [3]: much more immunogenic than fsp7 | T-cell response [4]: able to induce a T-cell response

AMTTSSSQKNITPAILTCC (listed as Homo sapiens) [p537, prior art peptide of mutTGFβR2]
immunogenicity / T-cell responses [2]: not immunogenic

KCIMKEKKSLVRLSSCV (listed as Homo sapiens) [fsp6, peptide of −1a frameshifted TGFβR2]
T-cell activation (SI) ([3]; day 14): capable of activating T-cells | relative immunogenicity [3]: less immunogenic than fsp2
